In patent US20080207593A1, “Antihistamine Combination” (Collegium Pharmaceutical, Inc., priority 2007, published 2008):
Structures can show the parent of a compound that is named as a salt.

How the values were obtained:
[1] = tested on: seasonal allergic rhinitis; conditions: cited from earlier work
[2] = tested on: seasonal allergic rhinitis nasal symptoms (rhinorrhea, nasal itching, sneezing); experiment: Proof of concept clinical study: Total Nasal Symptom Score (TNSS); type: in vivo, human; conditions: TNSS > 4.7 subgroup
Method: An open-label, placebo-controlled parallel-group comparison study was conducted. The protocol used was a 1 week run-in period, with daily placebo (PLC) for all groups, and a second 2 week period for treatment. Study participants were randomized to receive at bedtime (10 pm) during the treatment period, one of the following: PLC only; Immediate Release LOR 10 mg, or Immediate Release CHL 4 mg/Immediate Release LOR 10 mg. Commercially available IR tablets of CHL and LOR were packaged into capsules and used in this study. Participants filled out patient diaries in the morning (8 am) and evening (10 pm, prior to dosing). Reflective and Instantaneous TNSSs were recorded daily. Pittsburgh Sleep Quality Index (PSQI) was scored at the end of the study.
Each symptom (rhinorrhea, nasal itching, sneezing) was scored on the following scale (Max Score=9):
0=absent symptoms (no sign/symptom evident);
1=mild symptoms (signs or symptoms clearly present but with minimal awareness, and easily tolerated);
2=moderate symptoms (definite awareness of signs or symptoms that are bothersome but tolerable); or
3=Severe symptoms (signs or symptoms that are hard to tolerate and cause interference with activities of daily living and/or sleeping).
At each time point (at 8 AM and 10 PM), symptoms were scored for Instantaneous and Reflective scores.
Inclusion criteria: male/female 18-60 years, history of seasonal allergic rhinitis for at least two years, sensitivity to ragweed or locally prevalent allergen, immunotherapy at stable dose, AM Reflective TNSS=3 on at least 5 out of 7 consecutive days during run-in.
Exclusion criteria: subjects with asthma other than mild intermittent asthma, use of antihistamines, other than study medication; use of systemic or topical corticosteroids, use of decongestants or antihistamines within 3 days of Visit 1, nasal cromolyn within 2 weeks of Visit 1, nasal or systemic corticosteroids within 28 days of Visit 1, loratadine within 10 days of Visit 1, history of sleep abnormalities, sinusitis, use of medications causing drowsiness/interfere with sleep, subjects with a known history of alcohol or drug abuse, and other standard exclusions.
2.3 Study Sites. The Study was conducted in Newport News, Va. (20 subjects), Richmond, Va. (20 subjects), New Braunfels, Tex. (25 subjects), San Antonio, Tex. (9 subjects).

allergic rhinitis = conditions: cited from earlier work
[3] = tested on: seasonal allergic rhinitis; conditions: 4 mg three times per day (12 mg daily) for seven days; cited from earlier work
[4] = Baseline (1 week placebo run-in)
[5] = Change from Baseline to End-of-Treatment
[6] = End-of-Treatment, bedtime dosing

## CCOC(=O)N1CCC(=C2c3ccc(Cl)cc3CCc3cccnc32)CC1 [Loratadine]
[1]; 10 mg QD for four weeks
  nocturnal symptoms: did not show any improvement
[1]; 10 mg QD, first two week period and four week study overall
  symptom scores: statistically significant reduction
[2]; [4]
  AM TNSS Instantaneous Score, Max: 7.71
  AM TNSS Instantaneous Score, Mean: 5.58
  AM TNSS Instantaneous Score, Median: 5.43
  AM TNSS Instantaneous Score, Min: 3.71
  AM TNSS Reflective Score, Max: 8.14
  AM TNSS Reflective Score, Mean: 5.91
  AM TNSS Reflective Score, Median: 5.07
  AM TNSS Reflective Score, Min: 5.00
  PM TNSS Instantaneous Score, Max: 8.83
  PM TNSS Instantaneous Score, Mean: 5.70
  PM TNSS Instantaneous Score, Median: 5.21
  PM TNSS Instantaneous Score, Min: 3.86
  PM TNSS Reflective Score, Max: 8.50
  PM TNSS Reflective Score, Mean: 6.10
  PM TNSS Reflective Score, Median: 5.59
  PM TNSS Reflective Score, Min: 4.57
[2]; [5]
  PM TNSS Reflective Score, Change, Max: 1.21
  PM TNSS Reflective Score, Change, Mean: −0.92
  PM TNSS Reflective Score, Change, Median: −0.21
  PM TNSS Reflective Score, Change, Min: −3.45
[2]; Change from Baseline to Week 2
  AM TNSS Instantaneous Score, Change, Max: 1.21
  AM TNSS Instantaneous Score, Change, Mean: −0.74
  AM TNSS Instantaneous Score, Change, Median: −0.83
  AM TNSS Instantaneous Score, Change, Min: −2.62
  AM TNSS Reflective Score, Change, Max: 1.29
  AM TNSS Reflective Score, Change, Mean: −0.82
  AM TNSS Reflective Score, Change, Median: −0.52
  AM TNSS Reflective Score, Change, Min: −2.79
  PM TNSS Instantaneous Score, Change, Max: 1.00
  PM TNSS Instantaneous Score, Change, Mean: −0.81
  PM TNSS Instantaneous Score, Change, Median: −0.21
  PM TNSS Instantaneous Score, Change, Min: −3.45
[2]; [6]
  PM TNSS Reflective Score, Max: 7.71
  PM TNSS Reflective Score, Mean: 5.18
  PM TNSS Reflective Score, Median: 5.29
  PM TNSS Reflective Score, Min: 2.14
[2]; Week 2, bedtime dosing
  AM TNSS Instantaneous Score, Max: 7.36
  AM TNSS Instantaneous Score, Mean: 4.83
  AM TNSS Instantaneous Score, Median: 5.16
  AM TNSS Instantaneous Score, Min: 2.14
  AM TNSS Reflective Score, Max: 7.43
  AM TNSS Reflective Score, Mean: 5.08
  AM TNSS Reflective Score, Median: 5.13
  AM TNSS Reflective Score, Min: 2.21
  PM TNSS Instantaneous Score, Max: 7.21
  PM TNSS Instantaneous Score, Mean: 4.89
  PM TNSS Instantaneous Score, Median: 5.32
  PM TNSS Instantaneous Score, Min: 2.15
Allergic rhinitis; 10 mg once a day
  24 hour efficacy: lack of 24 hour efficacy
Allergic rhinitis; loratadine 40 mg once daily
  patients with significant sedation: 34.3%

## CN(C)CCC(c1ccc(Cl)cc1)c1ccccn1 (stereo not drawn) [chlorpheniramine, Chlorpheniramine maleate]
[3]
  patients reporting moderate or complete relief: 60%
  patients reporting sedation: 19%
